In patent US12227520B2 (priority 2019, dated 2025):

Columns and labels:
HIV-1 (IIIB) = assay: Antiviral assay in MT-4 cells (HIV MT-4 antiviral assay); type: cell-based; details: Human immunodeficiency virus 1, IIIB, MT4, 120 h, HIV-1 (IIIB) in MT-4 cells, 5 days incubation; read-out: EC50
Experimental: Compounds were tested in a high-throughput 384-well assay format for their ability to inhibit the replication of HIV-1 (IIIB) in MT-4 cells. Compounds were serially diluted (1:3) in DMSO on 384-well polypropylene plates and further diluted 200-fold into complete RPMI media (10% FBS, 1% P/S) using the Biotek Micro Flow and Labcyte ECHO acoustic dispenser. Each plate contained up to 8 test compounds, with negative (No Drug Control) and 5 μM AZT positive controls. MT-4 cells were pre-infected with 10 μL of either RPMI (mock-infected) or a fresh 1:250 dilution of HIV-1 IIIB concentrated virus stock. Infected and uninfected MT-4 cells were further diluted in complete RPMI media and added to each plate using a Micro Flow dispenser. After 5 days incubation in a humidified and temperature controlled incubator (37° C.), Cell Titer Glo (Promega) was added to the assay plates and chemiluminescence read using an Envision plate-reader.

[1] = Cytotoxicity assay in MT-4 cells; type: cell-based, human; details: human, uninfected MT-4 cells, 5 days incubation; read-out: CC50
Experimental: Each plate contained up to 8 test compounds, with negative (No Drug Control) and 5 μM AZT positive controls. MT-4 cells were pre-infected with 10 μL of either RPMI (mock-infected) or a fresh 1:250 dilution of HIV-1 IIIB concentrated virus stock. Infected and uninfected MT-4 cells were further diluted in complete RPMI media and added to each plate using a Micro Flow dispenser. After 5 days incubation in a humidified and temperature controlled incubator (37° C.), Cell Titer Glo (Promega) was added to the assay plates and chemiluminescence read using an Envision plate-reader. […] Assays were performed as above except uninfected MT-4 cells were added to each well containing test compound. In addition, 10 μM puromycin was added to the last column of each assay plate to assess a base level of cytotoxicity.

Row | EC50 (HIV-1 (IIIB)) [µM] | Structure (SMILES) | CC50 at 5 days [1] [µM]
1 | 0.00799 | O=C(NCc1ccc(F)cc1F)c1cn2c(c(O)c1=O)C(=O)N1CCCC(O)(C(F)F)[C@H]2C1 (stereo partly drawn) [Example 76, (7R)—N-(2,4-difluorobenzyl)-6-(difluoromethyl)-6,12-dihydroxy-1,11-dioxo-1,4,5,6,7,11-hexahydro-3H-2,7-methanopyrido[1,2-a][1,4]diazonine-10-carboxamide] | 23.7
2 | 0.00609 | Cn1cc2c(n1)C[C@H]1CN(C2)C(=O)c2c(O)c(=O)c(C(=O)NCc3c(F)cc(F)cc3F)cn21 [Example 87-1, (12S)-7-hydroxy-2-methyl-6,8-dioxo-N-(2,4,6-trifluorobenzyl)-2,4,6,8,12,13-hexahydro-5,12-methanopyrazolo[4,3-f]pyrido[1,2-a][1,4]diazonine-9-carboxamide] | > 50
3 | 0.0241 | O=C(NCc1ccc(F)c(Cl)c1F)c1cn2c(c(O)c1=O)C(=O)N1C[C@H]2CCc2ccc(F)cc21 [Example 90-1, (12R)—N-(3-chloro-2,4-difluorobenzyl)-3-fluoro-7-hydroxy-6,8-dioxo-6,8,13,14-tetrahydro-12H-5,12-methanobenzo[e]pyrido[1,2-a][1,4]diazonine-9-carboxamide] | > 32.6
4 | 0.0128 | O=C(NCc1cccc(Cl)c1F)c1cn2c(c(O)c1=O)C(=O)N1Cc3cc(F)c(F)cc3C[C@H]2C1 [Example 143-2, (6S)—N-(3-chloro-2-fluorobenzyl)-9,10-difluoro-1-hydroxy-2,14-dioxo-2,7,12,14-tetrahydro-6H-6,13-methanobenzo[f]pyrido[1,2-a][1,4]diazonine-3-carboxamide] | > 50
5 | 0.00305 | O=C(NCc1c(F)cc(F)cc1F)c1cn2c(c(O)c1=O)C(=O)N1CCSC[C@@H]2C1 [Example 155-1, (7S)-12-hydroxy-1,11-dioxo-N-(2,4,6-trifluorobenzyl)-1,3,4,6,7,11-hexahydro-2,7-methanopyrido[1,2-d][1,4,7]thiadiazonine-10-carboxamide] | 39.5
6 | 0.00897 | CO[C@@H]1CCN2C[C@H](C1)n1cc(C(=O)NCc3c(F)cc(F)cc3F)c(=O)c(O)c1C2=O [Example 103-1, (5R,7S)-12-hydroxy-5-methoxy-1,11-dioxo-N-(2,4,6-trifluorobenzyl)-1,4,5,6,7,11-hexahydro-3H-2,7-methanopyrido[1,2-a][1,4]diazonine-10-carboxamide] | > 50
7 | 0.00121 | C[C@H]1CCCN2C[C@H]1n1cc(C(=O)NCc3c(F)cc(F)cc3F)c(=O)c(O)c1C2=O [Example 170, (6S,7S)-12-hydroxy-6-methyl-1,11-dioxo-N-(2,4,6-trifluorobenzyl)-1,4,5,6,7,11-hexahydro-3H-2,7-methanopyrido[1,2-a][1,4]diazonine-10-carboxamide] | 9.86
8 | 0.00153 | COC1CCCN2C[C@@H]1n1cc(C(=O)NCc3c(F)cc(F)cc3F)c(=O)c(O)c1C2=O (stereo partly drawn) [Example 99-1, (7S)-12-hydroxy-6-methoxy-1,11-dioxo-N-(2,4,6-trifluorobenzyl)-1,4,5,6,7,11-hexahydro-3H-2,7-methanopyrido[1,2-a][1,4]diazonine-10-carboxamide] | > 22.2
9 | 0.00174 | Cn1ncc2c1C[C@H]1CN(C2)C(=O)c2c(O)c(=O)c(C(=O)NCc3c(F)cc(F)cc3F)cn21 [Example 87-2, (12S)-7-hydroxy-1-methyl-6,8-dioxo-N-(2,4,6-trifluorobenzyl)-1,4,6,8,12,13-hexahydro-5,12-methanopyrazolo[4,3-f]pyrido[1,2-a][1,4]diazonine-9-carboxamide] | > 50
10 | 0.036 | COc1cccc(CNC(=O)c2cn3c(c(O)c2=O)C(=O)N2CCCC[C@H]3C2)c1F [Example 54] | 1.46
11 | 0.00477 | Cc1noc2c1C[C@H]1CN(C2)C(=O)c2c(O)c(=O)c(C(=O)NCc3c(F)cc(F)cc3F)cn21 (single isomer, unassigned) [Example 135-2] | > 50
12 | 0.00814 | O=C(NCc1c(F)cc(F)cc1F)c1cn2c(c(O)c1=O)C(=O)N1CCc3ccccc3[C@@H]2C1 (single isomer, unassigned) [Example 63-2] | 14.3
13 | 0.00883 | C[C@@]1(F)CC[C@H]2CN(C1)C(=O)c1c(O)c(=O)c(C(=O)NCc3c(F)cc(F)cc3F)cn12 [Example 132-1, (4R,7S)-4-fluoro-12-hydroxy-4-methyl-1,11-dioxo-N-(2,4,6-trifluorobenzyl)-1,4,5,6,7,11-hexahydro-3H-2,7-methanopyrido[1,2-a][1,4]diazonine-10-carboxamide] | > 50
14 | 0.535 | O=C(NCc1ccc(F)cc1F)c1cn2c(c(O)c1=O)C(=O)N1C[C@@H]2COc2cc(F)c(F)cc21 [Example 92-1, (6R)—N-(2,4-difluorobenzyl)-10,11-difluoro-1-hydroxy-2,14-dioxo-2,6,7,14-tetrahydro-6,13-methanobenzo[b]pyrido[2,1-f][1,4,7]oxadiazonine-3-carboxamide] | > 50
15 | 0.00405 | O=C(NCc1ccc(F)cc1Cl)c1cn2c(c(O)c1=O)C(=O)N1CCCC[C@H]2C1 [Example 152, (7S)—N-(2-chloro-4-fluoro-benzyl)-12-hydroxy-1,11-dioxo-1,4,5,6,7,11-hexahydro-3H-2,7-methanopyrido[1,2-a][1,4]diazonine-10-carboxamide] | 12
16 | > 0.1 | CS(=O)(=O)N1CCN2CC(C1)n1cc(C(=O)NCc3ccc(F)cc3F)c(=O)c(O)c1C2=O (stereo not drawn) [Example 32, N-(2,4-difluorobenzyl)-12-hydroxy-5-(methylsulfonyl)-1,11-dioxo-1,4,5,6,7,11-hexahydro-3H-2,7-methanopyrido[1,2-a][1,4,7]triazonine-10-carboxamide] | > 50
17 | 0.007 | O=C(NCc1ccc(F)cc1F)c1cn2c(c(O)c1=O)C(=O)N1CCOC[C@H]2C1 [Example 29, (7R)—N-(2,4-difluorobenzyl)-12-hydroxy-1,11-dioxo-1,3,4,6,7,11-hexahydro-2,7-methanopyrido[1,2-d][1,4,7]oxadiazonine-10-carboxamide] | > 50
18 | 0.0041 | O=C(NCc1ccc(F)cc1F)c1cn2c(c(O)c1=O)C(=O)N1CCCC(O)C2C1 (stereo not drawn) [Example 12, N-(2,4-difluorobenzyl)-6,12-dihydroxy-1,11-dioxo-1,4,5,6,7,11-hexahydro-3H-2,7-methanopyrido[1,2-a][1,4]diazonine-10-carboxamide] | > 50
19 | > 0.1 | CC(=O)N1CCN2CC(C1)n1cc(C(=O)NCc3ccc(F)cc3F)c(=O)c(O)c1C2=O (stereo not drawn) [Example 31, 5-acetyl-N-(2,4-difluorobenzyl)-12-hydroxy-1,11-dioxo-1,4,5,6,7,11-hexahydro-3H-2,7-methanopyrido[1,2-a][1,4,7]triazonine-10-carboxamide] | > 50
20 | > 0.1 | O=C(NCc1ccc(F)cc1F)c1cn2c(c(O)c1=O)C(=O)N1C(=O)C2CCc2ccccc21 (stereo not drawn) [Example 27, N-(2,4-difluorobenzyl)-7-hydroxy-6,8,15-trioxo-6,8,13,14-tetrahydro-12H-5,12-methanobenzo[e]pyrido[1,2-a][1,4]diazonine-9-carboxamide] | 10.9
21 | 0.0092 | CO[C@H]1CCN2C[C@H](C1)n1cc(C(=O)NCc3c(F)cc(F)cc3F)c(=O)c(O)c1C2=O [Example 103-2, (5S,7S)-12-hydroxy-5-methoxy-1,11-dioxo-N-(2,4,6-trifluorobenzyl)-1,4,5,6,7,11-hexahydro-3H-2,7-methanopyrido[1,2-a][1,4]diazonine-10-carboxamide] | > 50
22 | 0.0232 | CO[C@H]1CC[C@H]2CN(C1)C(=O)c1c(O)c(=O)c(C(=O)NCc3c(F)cc(F)cc3F)cn12 [Example 91, (4S,7S)-12-hydroxy-4-methoxy-1,11-dioxo-N-(2,4,6-trifluorobenzyl)-1,4,5,6,7,11-hexahydro-3H-2,7-methanopyrido[1,2-a][1,4]diazonine-10-carboxamide] | > 50
23 | 0.0013 | O=C(NCc1ccc(F)cc1F)c1cn2c(c(O)c1=O)C(=O)N1CCCC(F)C2C1 (stereo not drawn) [Example 13, N-(2,4-difluorobenzyl)-6-fluoro-12-hydroxy-1,11-dioxo-1,4,5,6,7,11-hexahydro-3H-2,7-methanopyrido[1,2-a][1,4]diazonine-10-carboxamide] | 17.2
24 | 0.0241 | O=C(NCc1ccc(F)cc1F)c1cn2c(c(O)c1=O)C(=O)N1CCc3cc(Cl)ccc3[C@H]2C1 [Example 140-1, (13S)-10-chloro-N-(2,4-difluorobenzyl)-4-hydroxy-3,5-dioxo-3,5,8,13-tetrahydro-7H-6,13-methanobenzo[g]pyrido[1,2-a][1,4]diazonine-2-carboxamide] | 14.6
